Source: US11993599B2, “Therapeutic compounds” (Genentech, Inc., priority 2021, dated 2024)

How the values were obtained:
BRG1 = molecular target: T1, BRG1 (Homo sapiens, UniProt P51532); assay: Immunofluorescence assay for BRG1 degradation in SW1573 cells; format: cell-based; conditions: 20 hours incubation; for DC50: immunofluorescence mean nuclear signal, read-out: BRG1 IF Degradation IC50; for Dmax: SW1573, 20 h, normalized to a known degrader control, read-out: BRG1 IF Degradation Sinf (%)
T1 construct: either BRM primary antibody (Cell signaling Cat #11966) or BRG primary antibody (Abcam, ab 110641); endogenous in cells; host or cells: SW1573
T1 sequence (P51532 whole entry): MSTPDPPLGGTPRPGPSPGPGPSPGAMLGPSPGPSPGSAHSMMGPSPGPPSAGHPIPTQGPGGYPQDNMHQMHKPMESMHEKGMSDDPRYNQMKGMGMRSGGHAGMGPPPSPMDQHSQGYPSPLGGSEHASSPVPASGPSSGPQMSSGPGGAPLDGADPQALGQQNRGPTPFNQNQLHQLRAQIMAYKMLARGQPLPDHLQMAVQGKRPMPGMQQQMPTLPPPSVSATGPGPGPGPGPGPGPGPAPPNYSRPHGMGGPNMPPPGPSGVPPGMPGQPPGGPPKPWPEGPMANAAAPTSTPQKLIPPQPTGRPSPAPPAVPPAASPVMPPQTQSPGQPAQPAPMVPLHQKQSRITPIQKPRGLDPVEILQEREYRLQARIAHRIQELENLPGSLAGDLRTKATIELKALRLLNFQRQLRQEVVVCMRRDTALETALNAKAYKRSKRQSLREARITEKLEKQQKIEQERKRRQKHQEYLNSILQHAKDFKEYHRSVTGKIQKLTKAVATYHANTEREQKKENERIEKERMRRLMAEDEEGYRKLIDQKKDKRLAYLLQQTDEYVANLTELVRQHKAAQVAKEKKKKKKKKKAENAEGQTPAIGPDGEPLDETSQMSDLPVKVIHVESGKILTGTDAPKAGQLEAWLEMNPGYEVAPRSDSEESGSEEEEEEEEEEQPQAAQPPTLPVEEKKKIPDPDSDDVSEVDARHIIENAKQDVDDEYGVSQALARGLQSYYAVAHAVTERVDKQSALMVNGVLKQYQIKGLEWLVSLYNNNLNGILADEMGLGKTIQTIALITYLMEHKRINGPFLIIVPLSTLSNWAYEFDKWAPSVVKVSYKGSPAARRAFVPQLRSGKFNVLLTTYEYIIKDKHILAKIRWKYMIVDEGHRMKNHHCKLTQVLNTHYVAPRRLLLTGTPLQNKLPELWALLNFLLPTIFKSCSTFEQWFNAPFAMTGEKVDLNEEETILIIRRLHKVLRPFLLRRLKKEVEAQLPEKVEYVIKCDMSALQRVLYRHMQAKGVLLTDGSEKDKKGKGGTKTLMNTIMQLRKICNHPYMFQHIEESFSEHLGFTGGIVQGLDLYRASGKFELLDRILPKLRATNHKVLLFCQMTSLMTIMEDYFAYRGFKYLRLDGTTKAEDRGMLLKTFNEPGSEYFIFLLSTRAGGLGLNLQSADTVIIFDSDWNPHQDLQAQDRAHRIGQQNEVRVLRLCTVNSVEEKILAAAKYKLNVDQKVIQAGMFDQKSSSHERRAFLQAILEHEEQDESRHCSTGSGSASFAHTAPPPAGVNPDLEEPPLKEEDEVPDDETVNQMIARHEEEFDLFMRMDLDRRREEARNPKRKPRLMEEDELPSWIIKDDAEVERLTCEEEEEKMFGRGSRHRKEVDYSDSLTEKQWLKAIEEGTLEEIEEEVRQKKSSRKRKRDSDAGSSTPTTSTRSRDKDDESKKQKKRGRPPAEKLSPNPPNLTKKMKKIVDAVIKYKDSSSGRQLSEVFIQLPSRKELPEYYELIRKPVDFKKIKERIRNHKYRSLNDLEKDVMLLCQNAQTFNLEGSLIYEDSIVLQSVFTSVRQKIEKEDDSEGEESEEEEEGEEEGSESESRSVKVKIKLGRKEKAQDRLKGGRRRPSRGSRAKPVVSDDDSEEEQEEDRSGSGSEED
How it was run: (§1)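 After a 20 h incubation with test compound, SW1573 cells are fixed and stained for BRM or BRG1 plus Hoechst. Per-cell mean nuclear intensity, referenced to a degrader control, is fit concentration-dependently with unconstrained maximum for Dmax.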

BRM = BRM (Homo sapiens, UniProt P51531); assay: Immunofluorescence assay for BRM degradation in SW1573 cells; format: cell-based; set-up: treated overnight at 4° C. with either BRM primary antibody (Cell signaling Cat #11966) or BRG primary antibody; endogenous in cells; host or cells: SW1573; conditions: 20 hours incubation; for DC50: immunofluorescence mean nuclear signal, read-out: BRM IF Degradation IC50; for BRM IF Degradation Sinf (%): normalized to a known degrader control
Sequence of BRM (P51531 whole entry): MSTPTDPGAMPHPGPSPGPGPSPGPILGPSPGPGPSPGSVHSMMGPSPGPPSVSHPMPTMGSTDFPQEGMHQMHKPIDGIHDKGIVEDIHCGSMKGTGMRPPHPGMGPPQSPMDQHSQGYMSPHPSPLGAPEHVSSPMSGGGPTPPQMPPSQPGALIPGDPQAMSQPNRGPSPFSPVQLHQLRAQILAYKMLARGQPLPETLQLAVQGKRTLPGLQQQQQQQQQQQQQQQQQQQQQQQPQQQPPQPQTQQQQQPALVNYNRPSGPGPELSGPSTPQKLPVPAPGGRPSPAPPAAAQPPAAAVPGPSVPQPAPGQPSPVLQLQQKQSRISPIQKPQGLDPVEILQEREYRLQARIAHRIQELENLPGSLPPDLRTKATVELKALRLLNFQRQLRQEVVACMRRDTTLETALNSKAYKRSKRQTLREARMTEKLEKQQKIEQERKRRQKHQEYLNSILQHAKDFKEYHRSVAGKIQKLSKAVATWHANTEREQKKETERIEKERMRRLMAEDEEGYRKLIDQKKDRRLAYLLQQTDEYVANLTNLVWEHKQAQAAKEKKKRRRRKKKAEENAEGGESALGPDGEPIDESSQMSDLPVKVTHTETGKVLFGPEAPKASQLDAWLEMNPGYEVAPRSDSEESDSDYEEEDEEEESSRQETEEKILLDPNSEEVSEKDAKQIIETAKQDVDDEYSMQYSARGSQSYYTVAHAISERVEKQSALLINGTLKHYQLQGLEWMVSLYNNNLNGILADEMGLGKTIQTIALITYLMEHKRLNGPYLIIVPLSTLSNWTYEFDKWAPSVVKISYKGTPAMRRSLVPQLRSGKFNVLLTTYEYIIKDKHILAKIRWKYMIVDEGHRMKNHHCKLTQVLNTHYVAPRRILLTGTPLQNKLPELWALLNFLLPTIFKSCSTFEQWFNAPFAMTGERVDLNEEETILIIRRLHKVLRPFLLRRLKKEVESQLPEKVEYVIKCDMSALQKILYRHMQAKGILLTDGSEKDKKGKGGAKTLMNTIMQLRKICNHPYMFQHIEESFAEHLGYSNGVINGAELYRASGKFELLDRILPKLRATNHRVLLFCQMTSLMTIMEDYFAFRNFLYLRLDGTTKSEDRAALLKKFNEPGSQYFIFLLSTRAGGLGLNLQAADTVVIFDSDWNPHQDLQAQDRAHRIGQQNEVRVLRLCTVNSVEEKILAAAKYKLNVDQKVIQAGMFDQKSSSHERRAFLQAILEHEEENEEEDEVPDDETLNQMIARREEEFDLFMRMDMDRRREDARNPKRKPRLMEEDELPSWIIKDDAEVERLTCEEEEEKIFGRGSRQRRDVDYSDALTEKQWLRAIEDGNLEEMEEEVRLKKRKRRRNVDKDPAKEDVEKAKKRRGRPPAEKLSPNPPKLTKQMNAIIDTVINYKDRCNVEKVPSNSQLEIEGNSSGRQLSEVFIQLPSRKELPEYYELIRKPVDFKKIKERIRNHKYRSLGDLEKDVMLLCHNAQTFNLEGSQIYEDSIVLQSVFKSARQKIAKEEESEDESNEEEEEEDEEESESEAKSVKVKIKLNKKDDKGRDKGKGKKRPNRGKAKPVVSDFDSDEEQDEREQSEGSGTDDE
How it was run: as §1

Row | SMILES | DC50 (BRG1) [nM] | Dmax (BRG1) [%] | DC50 (BRM) [nM] | BRM IF Degradation Sinf (%) (BRM)
1 | Nc1nnc(-c2ccccc2O)cc1N1CC2CCC(C1)N2c1ccnc(C#CCN2CC3(CCOCC3)C2)c1 [Compound 49, 2-[6-amino-5-[8-[2-[3-(7-oxa-2-azaspiro[3.5]nonan-2-yl)prop-1-ynyl]-4-pyridyl]-3,8-diazabicyclo[3.2.1]octan-3-yl]pyridazin-3-yl]phenol] | < 10 | 30 to 70 | < 10 | F (F indicates −71%-−120%)
2 | Nc1nnc(-c2ccccc2O)cc1N1CC2CCC(C1)N2c1ccnc(C#CCN2CC3CCCC2C3)c1 (stereo not drawn) [Compound 125, 2-[6-amino-5-[8-[2-[3-(6-azabicyclo[3.2.1]octan-6-yl)prop-1-ynyl]-4-pyridyl]-3,8-diazabicyclo[3.2.1]octan-3-yl]pyridazin-3-yl]phenol] | < 10 | 30 to 70 | < 10 | E (E indicates −30%-−70%)
3 | Nc1nnc(-c2ccccc2O)cc1N1CC2CCC(C1)N2c1ccnc(C#CCN2CC3CCCC(C2)O3)c1 [Compound 101, 2-[6-amino-5-[8-[2-[3-(9-oxa-3-azabicyclo[3.3.1]nonan-3-yl)prop-l-ynyl]-4-pyridyl]-3,8-diazabicyclo[3.2.1]octan-3-yl]pyridazin-3-yl]phenol] | > 100 |  | 10 to 100 | E (E indicates −30%-−70%)
4 | Nc1nnc(-c2ccccc2O)cc1N1CC2CCC(C1)N2c1ccnc(C#CCN2CCCCC(O)(CF)C2)c1 (stereo not drawn) [Compound 241, 1-[3-[4-[3-[3-amino-6-(2-hydroxyphenyl)pyridazin-4-yl]-3,8-diazabicyclo[3.2.1]octan-8-yl]-2-pyridyl]prop-2-ynyl]-3-(fluoromethyl)azepan-3-ol] | < 10 | 0 to 30 | 10 to 100 | E (E indicates −30%-−70%)
5 | Nc1nnc(-c2ccccc2O)cc1N1CC2CCC(C1)N2c1ccnc(C#CCN2C[C@H]3OCC[C@H]32)c1 [Compound 161, 2-[6-amino-5-[8-[2-[3-[(1R,5R)-2-oxa-6-azabicyclo[3.2.0]heptan-6-yl]prop-1-ynyl]-4-pyridyl]-3,8-diazabicyclo[3.2.1]octan-3-yl]pyridazin-3-yl]phenol] | 10 to 100 | 30 to 70 | < 10 | E (E indicates −30%-−70%)
6 | CC1(O)CCCCN(CC#Cc2cc(N3C4CCC3CN(c3cc(-c5ccccc5O)nnc3N)C4)ccn2)C1 (stereo not drawn) [Compound 240, 1-[3-[4-[3-[3-amino-6-(2-hydroxyphenyl)pyridazin-4-yl]-3,8-diazabicyclo[3.2.1]octan-8-yl]-2-pyridyl]prop-2-ynyl]-3-methyl-azepan-3-ol] | 10 to 100 | 30 to 70 | 10 to 100 | F (F indicates −71%-−120%)
7 | Nc1nnc(-c2ccccc2O)cc1N1CC2CCC(C1)N2c1ccnc(C#CCN2CCC[C@]23CCNC3)c1 [Compound 165, 2-[6-amino-5-[8-[2-[3-[(5R)-1,7-diazaspiro[4.4]nonan-1-yl]prop-1-ynyl]-4-pyridyl]-3,8-diazabicyclo[3.2.1]octan-3-yl]pyridazin-3-yl]phenol] | > 100 |  | > 100 | E (E indicates −30%-−70%)
8 | CC1(C)CN(CC#Cc2cc(N3C4CCC3CN(c3cc(-c5ccccc5O)nnc3N)C4)ccn2)CCO1 [Compound 119, 2-[6-amino-5-[8-[2-[3-(2,2-dimethylmorpholin-4-yl)prop-1-ynyl]-4-pyridyl]-3,8-diazabicyclo[3.2.1]octan-3-yl]pyridazin-3-yl]phenol] | > 100 |  | > 100 | E (E indicates −30%-−70%)
9 | CC1CN(CC#Cc2cc(N3C4CCC3CN(c3cc(-c5ccccc5O)nnc3N)C4)ccn2)CCCO1 (stereo not drawn) [Compound 42, 2-[6-amino-5-[8-[2-[3-(2-methyl-1,4-oxazepan-4-yl)prop-1-ynyl]-4-pyridyl]-3,8-diazabicyclo[3.2.1]octan-3-yl]pyridazin-3-yl]phenol] | 10 to 100 | 30 to 70 | 10 to 100 | E (E indicates −30%-−70%)
10 | CN1CC2(CCN(CC#Cc3cc(N4C5CCC4CN(c4cc(-c6ccccc6O)nnc4N)C5)ccn3)C2)C1 [Compound 156, 2-[6-amino-5-[8-[2-[3-(2-methyl-2,6-diazaspiro[3.4]octan-6-yl)prop-1-ynyl]-4-pyridyl]-3,8-diazabicyclo[3.2.1]octan-3-yl]pyridazin-3-yl]phenol] | > 100 | 30 to 70 | > 100 | E (E indicates −30%-−70%)
11 | Nc1nnc(-c2ccccc2O)cc1N1CC2CCC(C1)N2c1ccnc(C#CCN2CCCCCC2CO)c1 (stereo not drawn) [Compound 216, 2-[6-amino-5-[8-[2-[3-[2-(hydroxymethyl)azepan-1-yl]prop-1-ynyl]-4-pyridyl]-3,8-diazabicyclo[3.2.1]octan-3-yl]pyridazin-3-yl]phenol] | < 10 | 71 to 120 | < 10 | F (F indicates −71%-−120%)
12 | CC1CCCN(CC#Cc2cc(N3C4CCC3CN(c3cc(-c5ccccc5O)nnc3N)C4)ccn2)CC1C (stereo not drawn) [Compound 195, 2-[6-amino-5-[8-[2-[3-(3,4-dimethylazepan-1-yl)prop-1-ynyl]-4-pyridyl]-3,8-diazabicyclo[3.2.1]octan-3-yl]pyridazin-3-yl]phenol] | < 10 | 30 to 70 | < 10 | F (F indicates −71%-−120%)
13 | Nc1nnc(-c2ccccc2O)cc1N1CC2CCC(C1)N2c1ccnc(C#CCN2CCC3(CCC3)C2)c1 [Compound 129, 2-[6-amino-5-[8-[2-[3-(6-azaspiro[3.4]octan-6-yl)prop-1-ynyl]-4-pyridyl]-3,8-diazabicyclo[3.2.1]octan-3-yl]pyridazin-3-yl]phenol] | < 10 | 30 to 70 | < 10 | E (E indicates −30%-−70%)
14 | Nc1nnc(-c2ccccc2O)cc1N1CC2CCC(C1)N2c1ccnc(C#CCN2CCC3CC[C@@H](O)C32)c1 (stereo partly drawn) [Compound 78, (6R)-1-[3-[4-[3-[3-amino-6-(2-hydroxyphenyl)pyridazin-4-yl]-3,8-diazabicyclo[3.2.1]octan-8-yl]-2-pyridyl]prop-2-ynyl]-3,3a,4,5,6,6a-hexahydro-2H-cyclopenta[b]pyrrol-6-ol] | > 100 |  | < 10 | E (E indicates −30%-−70%)
15 | CC1(C)CN(CC#Cc2cc(N3C4CCC3CN(c3cc(-c5ccccc5O)nnc3N)C4)ccn2)C1 [Compound 135, 2-[6-amino-5-[8-[2-[3-(3,3-dimethylazetidin-1-yl)prop-1-ynyl]-4-pyridyl]-3,8-diazabicyclo[3.2.1]octan-3-yl]pyridazin-3-yl]phenol] | < 10 | 30 to 70 | < 10 | E (E indicates −30%-−70%)
16 | CC1CN(CC#Cc2cc(N3C4CCC3CN(c3cc(-c5ccccc5O)nnc3N)C4)ccn2)C1C (stereo not drawn) [Compound 180, 2-[6-amino-5-[8-[2-[3-(2,3-dimethylazetidin-1-yl)prop-1-ynyl]-4-pyridyl]-3,8-diazabicyclo[3.2.1]octan-3-yl]pyridazin-3-yl]phenol] | < 10 | 30 to 70 | < 10 | E (E indicates −30%-−70%)
